Source: PubChem BioAssay (NCI)
Several values for one entry are separate records, joined by “and”; a condition that tells them apart may be missing. Identical values can stand only once.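 Assay format: 96-well plates, 48-hour exposure. GI50 marks 50% less growth. TGI denotes the concentration required for complete inhibition of growth.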

Key:
Test in all cases: growth of human tumour cells (NCI), 48 h
[1] = tested on: OVCAR-3 ovarian
[2] = tested on: SF-539 CNS
[3] = tested on: KM12 colon
[4] = tested on: HCC-2998 colon
[5] = tested on: UACC-62 melanoma
[6] = tested on: XF 498 CNS
[7] = tested on: HT29 colon
[8] = tested on: SF-295 CNS
[9] = tested on: LOX IMVI melanoma
[10] = tested on: NCI-H522 lung
[11] = tested on: M19-MEL melanoma
[12] = tested on: IGROV1 ovarian
[13] = tested on: EKVX NSCLC
[14] = tested on: NCI-H460 lung
[15] = tested on: TK-10 renal
[16] = tested on: 786-0 renal
[17] = tested on: RXF 393 renal
[18] = tested on: M14 melanoma
[19] = tested on: SK-OV-3 ovarian
[20] = tested on: OVCAR-8 ovarian
[21] = tested on: SK-MEL-2 melanoma
[22] = tested on: HCT-15 colon
[23] = tested on: MALME-3M melanoma
[24] = tested on: HOP-18 NSCLC
[25] = tested on: HL-60(TB) leukemia
[26] = tested on: SR leukemia
[27] = tested on: CCRF-CEM leukemia
[28] = tested on: SW-620 colon
[29] = tested on: OVCAR-5 ovarian
[30] = tested on: UACC-257 melanoma
[31] = tested on: SNB-78 CNS
[32] = tested on: MOLT-4 leukemia
[33] = tested on: SK-MEL-5 melanoma
[34] = tested on: A549 NSCLC
[35] = tested on: SF-268 CNS
[36] = tested on: U251 CNS
[37] = tested on: SNB-19 CNS
[38] = tested on: HOP-62 NSCLC
[39] = tested on: SK-MEL-28 melanoma
[40] = tested on: SNB-75 CNS
[41] = tested on: COLO 205 colon
[42] = tested on: RPMI-8226 leukemia
[43] = tested on: SN12C renal
[44] = tested on: HCT-116 colon
[45] = tested on: ACHN renal
[46] = tested on: NCI-H226 lung
[47] = tested on: A498 renal
[48] = tested on: DMS 273 small cell lung
[49] = tested on: CAKI-1 renal
[50] = tested on: UO-31 renal
[51] = tested on: K-562 leukemia
[52] = tested on: LXFL 529 NSCLC
[53] = tested on: NCI-H23 lung
[54] = tested on: KM20L2 colon
[55] = tested on: DLD-1 colon
[56] = tested on: OVCAR-4 ovarian
[57] = tested on: HOP-92 NSCLC

Question: Which TGI [1] does the source give for `COc1ccc(/C(Cl)=C(\CN(C)C)c2ccc(OC)c(OC)c2)cc1OC` here?
Answer: > 100 µM

Question: And the TGI [2]?
Answer: > 100 µM

Question: And the TGI [3]?
Answer: > 100 µM

Question: What about the TGI [4] of the same molecule?
Answer: > 100 µM

Question: What about the TGI [5] of the same molecule?
Answer: > 100 µM

Question: What about the TGI [6] of the same molecule?
Answer: > 100 µM

Question: What about the TGI [7] of the same molecule?
Answer: > 100 µM

Question: And the TGI [8]?
Answer: > 100 µM

Question: And the TGI [9]?
Answer: > 100 µM

Question: What about the TGI [10] of the same molecule?
Answer: > 100 µM

Question: What about the TGI [11] of the same molecule?
Answer: > 100 µM

Question: And the TGI [12]?
Answer: > 100 µM

Question: And the TGI [13]?
Answer: > 100 µM

Question: And the TGI [14]?
Answer: > 100 µM

Question: And the GI50 [15]?
Answer: > 27.9 µM

Question: What about the TGI [15] of the same molecule?
Answer: > 100 µM

Question: And the TGI [16]?
Answer: > 100 µM

Question: What about the TGI [17] of the same molecule?
Answer: > 28.6 µM

Question: What about the TGI [18] of the same molecule?
Answer: > 100 µM

Question: What about the TGI [19] of the same molecule?
Answer: > 100 µM

Question: What about the TGI [20] of the same molecule?
Answer: > 100 µM

Question: And the TGI [21]?
Answer: > 100 µM

Question: What about the TGI [22] of the same molecule?
Answer: > 100 µM

Question: And the TGI [23]?
Answer: > 100 µM

Question: And the TGI [24]?
Answer: > 100 µM

Question: What about the TGI [25] of the same molecule?
Answer: > 100 µM

Question: What about the TGI [26] of the same molecule?
Answer: > 100 µM

Question: And the TGI [27]?
Answer: > 100 µM

Question: And the TGI [28]?
Answer: > 100 µM

Question: What about the TGI [29] of the same molecule?
Answer: > 100 µM

Question: And the TGI [30]?
Answer: > 100 µM

Question: What about the TGI [31] of the same molecule?
Answer: 97.9 µM and > 100 µM

Question: What about the TGI [32] of the same molecule?
Answer: > 100 µM

Question: And the TGI [33]?
Answer: > 100 µM

Question: And the TGI [34]?
Answer: > 100 µM

Question: And the TGI [35]?
Answer: > 100 µM

Question: And the TGI [36]?
Answer: > 100 µM

Question: And the TGI [37]?
Answer: > 100 µM

Question: What about the TGI [38] of the same molecule?
Answer: > 100 µM

Question: What about the TGI [39] of the same molecule?
Answer: > 100 µM

Question: And the TGI [40]?
Answer: > 100 µM

Question: What about the TGI [41] of the same molecule?
Answer: > 100 µM

Question: What about the TGI [42] of the same molecule?
Answer: > 100 µM

Question: What about the TGI [43] of the same molecule?
Answer: > 100 µM

Question: What about the TGI [44] of the same molecule?
Answer: > 46.4 µM

Question: And the TGI [45]?
Answer: > 100 µM

Question: What about the TGI [46] of the same molecule?
Answer: > 100 µM

Question: And the TGI [47]?
Answer: > 100 µM

Question: What about the TGI [48] of the same molecule?
Answer: > 100 µM

Question: And the TGI [49]?
Answer: > 100 µM

Question: What about the TGI [50] of the same molecule?
Answer: > 100 µM

Question: What about the TGI [51] of the same molecule?
Answer: > 100 µM

Question: And the TGI [52]?
Answer: > 100 µM

Question: And the TGI [53]?
Answer: > 100 µM

Question: And the TGI [54]?
Answer: > 100 µM

Question: What about the TGI [55] of the same molecule?
Answer: > 100 µM

Question: What does the source list for `CC1=CC2C(=O)N(c3ccccc3)C(=O)C2CC1n1[nH]c(=O)n(Cc2ccccc2)c1=O` (stereo not given)?
Answer: TGI [1]: > 100 µM; TGI [2]: > 100 µM; TGI [3]: > 100 µM; TGI [4]: > 100 µM; TGI [5]: > 100 µM; TGI [6]: > 100 µM; TGI [7]: > 100 µM; TGI [8]: > 100 µM; TGI [9]: > 100 µM; TGI [10]: > 100 µM; TGI [12]: > 100 µM; TGI [13]: > 100 µM; TGI [14]: > 100 µM; TGI [15]: > 100 µM; TGI [16]: > 100 µM; TGI [17]: > 100 µM; TGI [18]: > 100 µM; TGI [19]: > 100 µM; TGI [20]: > 100 µM; TGI [56]: > 100 µM; TGI [21]: > 100 µM; TGI [22]: > 100 µM; TGI [23]: > 100 µM; TGI [24]: > 100 µM; TGI [25]: > 100 µM; TGI [26]: > 100 µM; TGI [27]: > 100 µM; TGI [28]: > 100 µM; TGI [29]: > 100 µM; TGI [30]: > 100 µM; TGI [31]: > 100 µM; TGI [33]: > 100 µM; TGI [34]: > 100 µM; TGI [35]: > 100 µM; TGI [36]: > 100 µM; TGI [37]: > 100 µM; TGI [38]: > 100 µM; TGI [39]: > 100 µM; TGI [40]: > 100 µM; TGI [41]: > 100 µM; TGI [43]: > 100 µM; TGI [44]: > 100 µM; TGI [45]: > 100 µM; TGI [57]: > 100 µM; TGI [46]: > 100 µM; TGI [47]: > 100 µM; TGI [48]: > 100 µM; TGI [49]: > 100 µM; TGI [50]: > 100 µM; TGI [51]: > 100 µM; TGI [52]: > 100 µM; TGI [53]: > 100 µM; TGI [54]: > 100 µM; TGI [55]: > 100 µM
